Measurements as given in article PMC3268775 (Journal of the American Chemical Society, 2012).

B1: wild type α2: β2 complex: E. coli class Ia ribonucleotide reductase (protein, UniProt P00452 1-761; P69924 2-376, looked up)
Ribonucleoside-diphosphate … 1: MNQNLLVTKRDGSTERINLDKIHRVLDWAAEGLHNVSISQVELRSHIQFYDGIKTSDIHETIIKAAADLISRDAPDYQYLAARLAIFHLRKKAYGQFEPPALYDHVVKMVEMGKYDNHLLEDYTEEEFKQMDTFIDHDRDMTFSYAAVKQLEGKYLVQNRVTGEIYESAQFLYILVAACLFSNYPRETRLQYVKRFYDAVSTFKISLPTPIMSGVRTPTRQFSSCVLIECGDSLDSINATSSAIVKYVSQRAGIGINAGRIRALGSPIRGGEAFHTGCIPFYKHFQTAVKSCSQGGVRGGAATLFYPMWHLEVESLLVLKNNRGVEGNRVRHMDYGVQINKLMYTRLLKGEDITLFSPSDVPGLYDAFFADQEEFERLYTKYEKDDSIRKQRVKAVELFSLMMQERASTGRIYIQNVDHCNTHSPFDPAIAPVRQSNLCLEIALPTKPLNDVNDENGEIALCTLSAFNLGAINNLDELEELAILAVRALDALLDYQDYPIPAAKRGAMGRRTLGIGVINFAYYLAKHGKRYSDGSANNLTHKTFEAIQYYLLKASNELAKEQGACPWFNETTYAKGILPIDTYKKDLDTIANEPLHYDWEALRESIKTHGLRNSTLSALMPSETSSQISNATNGIEPPRGYVSIKASKDGILRQVVPDYEHLHDAYELLWEMPGNDGYLQLVGIMQKFIDQSISANTNYDPSRFPSGKVPMQQLLKDLLTAYKFGVKTLYYQNTRDGAEDAQDDLVPSIQDDGCESGACKI
Ribonucleoside-diphosphate … 2: AYTTFSQTKNDQLKEPMFFGQPVNVARYDQQKYDIFEKLIEKQLSFFWRPEEVDVSRDRIDYQALPEHEKHIFISNLKYQTLLDSIQGRSPNVALLPLISIPELETWVETWAFSETIHSRSYTHIIRNIVNDPSVVFDDIVTNEQIQKRAEGISSYYDELIEMTSYWHLLGEGTHTVNGKTVTVSLRELKKKLYLCLMSVNALEAIRFYVSFACSFAFAERELMEGNAKIIRLIARDEALHLTGTQHMLNLLRSGADDPEMAEIAEECKQECYDLFVQAAQQEKDWADYLFRDGSMIGLNKDILCQYVEYITNIRMQAVGLDLPFQTRSNPIPWINTWLVSDNVQVAPQEVEVSSYLVGQIDSEVDTDDLSNFQL

Legend:
pKa of [Re]–F3Y–βC19 = format: physicochemical; details: pH 8.3
[1] = pH 8.3; cited from earlier work
α2: β2 complex = details: cited from earlier work

| Molecule | F3Y deprotonated (pKa of [Re]–F3Y–βC19) | reduction potential of F3Y above tyrosine [1] | baseline catalytic turnover (α2: β2 complex) |
| --- | --- | --- | --- |
| N[C@@H](Cc1c(F)cc(O)c(F)c1F)C(=O)O [F3Y, 2,3,6-trifluorotyrosine] | ~ 94% | ~ 180 mV | – |
| B1 | – | – | 2 to 10 s⁻¹ |
